Laboratory results reported in article PMC6272448, “Synthesis, ^18F-Radiolabelling and Biological Characterization of Novel Fluoroalkylated Triazine Derivatives for in Vivo Imaging of Phosphodiesterase 2A in Brain via Positron Emission Tomography” (Molecules, 2015).
Read-outs that look alike come from different tables or passages of the source.

Legend:
human recombinant PDE2A = human recombinant PDE2A (Homo sapiens, UniProt O00408); experiment: enzyme assay, inhibitory potency for human recombinant PDE2A; assay type: biochemical; conditions: for Selectivity Ratio PDE10A/PDE2A: IC50 hPDE10A / IC50 hPDE2A; for IC50: human recombinant PDE2A, enzyme assay (BioCrea), read-out: IC50 hPDE2A
Source text: (§1) The IC50 values obtained by this assay represent relative measures of the respective target affinity of the compounds.

human recombinant PDE10A = human recombinant PDE10A (Homo sapiens, UniProt Q9Y233); experiment: enzyme assay, inhibitory potency for human recombinant PDE10A; assay type: biochemical; conditions: enzyme assay (BioCrea), read-out: IC50 hPDE10A
Source text: as §1

hPDE2A = conditions: cited from earlier work
[1] = set-up: method as in PMID 24189054; conditions: rats, cited from earlier work
[2] = set-up: method as in PMID 24189054, PMID 23651455; conditions: monkeys, striatum; cited from earlier work
hPDE10A = system: hPDE10A; set-up: method as in PMID 24189054, PMID 23651455; conditions: cited from earlier work

Chain of human recombinant PDE10A (Q9Y233 whole entry): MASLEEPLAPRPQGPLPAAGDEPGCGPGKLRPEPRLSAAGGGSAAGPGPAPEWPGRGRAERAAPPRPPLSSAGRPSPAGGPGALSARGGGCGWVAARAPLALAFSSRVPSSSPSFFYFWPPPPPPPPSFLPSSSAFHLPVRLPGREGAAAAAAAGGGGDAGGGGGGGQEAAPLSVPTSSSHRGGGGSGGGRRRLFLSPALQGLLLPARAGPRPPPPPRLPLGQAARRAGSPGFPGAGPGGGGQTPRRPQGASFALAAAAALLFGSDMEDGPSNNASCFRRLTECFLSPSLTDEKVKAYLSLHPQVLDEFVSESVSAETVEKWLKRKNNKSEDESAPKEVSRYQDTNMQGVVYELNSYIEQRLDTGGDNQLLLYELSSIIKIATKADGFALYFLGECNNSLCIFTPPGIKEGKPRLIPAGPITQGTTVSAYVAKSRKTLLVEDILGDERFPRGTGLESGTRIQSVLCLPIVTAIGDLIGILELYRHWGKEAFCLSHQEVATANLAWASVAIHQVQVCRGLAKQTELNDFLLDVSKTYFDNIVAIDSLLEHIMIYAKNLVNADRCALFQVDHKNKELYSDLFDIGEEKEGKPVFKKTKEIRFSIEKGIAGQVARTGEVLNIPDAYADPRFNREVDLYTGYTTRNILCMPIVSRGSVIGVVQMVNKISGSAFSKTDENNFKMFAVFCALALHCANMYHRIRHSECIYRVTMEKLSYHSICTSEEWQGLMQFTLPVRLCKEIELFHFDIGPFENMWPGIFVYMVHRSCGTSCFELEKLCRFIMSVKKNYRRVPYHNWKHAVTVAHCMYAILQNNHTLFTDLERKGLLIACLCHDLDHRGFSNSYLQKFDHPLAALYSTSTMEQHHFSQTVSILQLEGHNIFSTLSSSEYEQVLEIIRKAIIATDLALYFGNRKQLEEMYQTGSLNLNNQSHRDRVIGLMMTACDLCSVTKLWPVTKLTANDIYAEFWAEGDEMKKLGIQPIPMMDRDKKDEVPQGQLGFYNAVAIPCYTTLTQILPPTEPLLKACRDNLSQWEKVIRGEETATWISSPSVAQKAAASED
Chain of human recombinant PDE2A (O00408 whole entry): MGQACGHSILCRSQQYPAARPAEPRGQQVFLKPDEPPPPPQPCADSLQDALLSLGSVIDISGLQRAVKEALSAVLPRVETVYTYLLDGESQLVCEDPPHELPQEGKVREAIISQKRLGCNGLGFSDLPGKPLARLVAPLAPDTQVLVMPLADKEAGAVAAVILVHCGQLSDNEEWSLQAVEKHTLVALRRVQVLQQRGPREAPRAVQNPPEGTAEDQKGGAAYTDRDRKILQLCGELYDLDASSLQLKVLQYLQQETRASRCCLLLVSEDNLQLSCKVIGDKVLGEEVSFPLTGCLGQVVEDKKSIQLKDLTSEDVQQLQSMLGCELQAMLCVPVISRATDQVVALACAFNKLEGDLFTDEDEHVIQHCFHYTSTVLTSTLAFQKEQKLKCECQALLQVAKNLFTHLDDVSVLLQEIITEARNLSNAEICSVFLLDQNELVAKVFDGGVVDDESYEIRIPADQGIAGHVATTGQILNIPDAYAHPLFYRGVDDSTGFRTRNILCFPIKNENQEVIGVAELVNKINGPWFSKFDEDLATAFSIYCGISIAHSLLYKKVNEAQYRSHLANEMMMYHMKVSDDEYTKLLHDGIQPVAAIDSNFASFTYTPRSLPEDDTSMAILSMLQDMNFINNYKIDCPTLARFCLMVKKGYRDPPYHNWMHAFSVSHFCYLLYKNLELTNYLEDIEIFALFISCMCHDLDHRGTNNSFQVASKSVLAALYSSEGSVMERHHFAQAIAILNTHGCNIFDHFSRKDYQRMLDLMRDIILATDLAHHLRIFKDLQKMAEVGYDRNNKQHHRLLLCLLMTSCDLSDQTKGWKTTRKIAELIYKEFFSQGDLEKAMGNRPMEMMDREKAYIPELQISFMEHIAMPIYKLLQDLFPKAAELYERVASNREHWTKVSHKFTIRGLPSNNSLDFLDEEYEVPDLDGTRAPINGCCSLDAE

Row | Structure (SMILES) | Selectivity Ratio PDE10A/PDE2A (human recombinant PDE2A) | IC50 (human recombinant PDE2A) [µM] | IC50 (human recombinant PDE10A) [µM] | further results
1 | COc1ccc2nnc3c(C)nc(-c4cc(OCCF)ccc4F)n3c2n1 [TA2, 9-(2-Fluoro-5-(2-fluoroethoxy)phenyl)-2-methoxy-7-methylimidazo[5,1-c]pyrido[2,3-e] [1,2,4]triazine] | 7.4 | 0.0104 | 0.077 | –
2 | COc1ccc(Cc2nn3c(C(CCCc4ccccc4)C(C)O)nc(C)c3c(=O)[nH]2)cc1OC (centres unmarked) [BAY 60-7550] | – | – | – | IC50 (hPDE2A; Figure 1): ~0.005 µM
3 | COc1ccc2nnc3c(C)nc(-c4cc(OCCCCF)ccc4F)n3c2n1 [TA4] | 125.1 | 0.0073 | 0.913 | –
4 | Cc1nc2ccc(CN3CCOCC3)cc2n2c(-c3c([18F])cccc3Cl)nnc12 [[^18F]B-23] | – | – | – | radiometabolites detected in the brain ([1]; at 2 min p.i.): 4 % of total activity; radiometabolites detected in the brain ([1]; at 10 min p.i.): 10 % of total activity; regional accumulation in microPET imaging [1]: highest accumulation of [^18F]B-23 has been observed in the striatum
5 | COc1ccc2nnc3c(C)nc(-c4cc(OCCCF)ccc4F)n3c2n1 [TA3] | 27.9 | 0.0114 | 0.318 | –
6 | CCCCCCC(C(C)O)n1cnc2c(N)ncnc21 (stereo not drawn) [EHNA, erythro-9-(2-hydroxy-3-nonyl)-adenine] | – | – | – | IC50 (hPDE2A; Figure 1): ~1 µM
7 | Cc1nc(-c2cnn(C)c2-c2ccc(C(F)(F)F)cc2)c2c(N3CC([18F])C3)ncnn12 [[^18F]PF-05270430] | – | – | – | IC50 (hPDE2A; Pfizer PET ligand): 0.0005 µM; uptake in PET studies [2]: rapid and high uptake; IC50 (hPDE10A): 3 µM
